Reference: patent US9029377B2, “Platelet-activating factor receptor antagonists” (Merck Sharp & Dohme Corp., priority 2009, dated 2015)

The compounds below were run against PAFR (Homo sapiens, UniProt P25105) (assay: PAF Binding Assay (PAFR binding)).
PAFR, sequence (P25105 whole entry): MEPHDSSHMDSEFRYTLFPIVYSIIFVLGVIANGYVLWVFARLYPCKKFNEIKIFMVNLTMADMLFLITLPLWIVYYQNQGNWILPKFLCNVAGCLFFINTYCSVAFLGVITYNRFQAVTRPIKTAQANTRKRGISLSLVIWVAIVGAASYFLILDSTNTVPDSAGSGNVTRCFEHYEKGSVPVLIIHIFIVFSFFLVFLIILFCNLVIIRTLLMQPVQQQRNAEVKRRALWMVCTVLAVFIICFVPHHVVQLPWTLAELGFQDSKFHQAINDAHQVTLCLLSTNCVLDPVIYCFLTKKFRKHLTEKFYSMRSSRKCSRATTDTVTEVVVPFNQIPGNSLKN

IC50 [nM] | Compound
36 | O=S(=O)(N[C@H]1CCC[C@@H](n2cnnc2)C1)c1cc(-c2ccncc2)cc(C(F)(F)F)c1 [Compound 3An, 3-pyridin-4-yl-N-[(1S,3R)-3-(4H-1,2,4-triazol-4-yl)cyclohexyl]-5-(trifluoromethyl)benzenesulfonamide]
3.8 | Cc1nncn1[C@@H]1CCC[C@H](NS(=O)(=O)c2ccc(-c3noc(C4CCCC4)n3)cc2OC(F)(F)F)C1 [Compound 2Bbh, 4-(5-cyclopentyl-1,2,4-oxadiazol-3-yl)-N-[(1S,3R)-3-(3-methyl-4H-1,2,4-triazol-4-yl)cyclohexyl]-2-(trifluoromethoxy)benzenesulfonamide]
0.9 | CCc1cc(-c2ccc(OC(F)(F)F)cc2)ccc1S(=O)(=O)N[C@@H]1C[C@H](n2cnnc2C)CC(F)(F)C1 [Compound 2Cbd, N-[(1R,5S)-3,3-difluoro-5-(3-methyl-4H-1,2,4-triazol-4-yl)cyclohexyl]-3-ethyl-4′-(trifluoromethoxy)biphenyl-4-sulfonamide]
38 | CCc1cc(-c2ccc3c(c2)OCO3)ccc1S(=O)(=O)N[C@H]1CCC[C@@H](n2cnnc2)C1 [Compound 2Ax, 4-(1,3-benzodioxol-5-yl)-2-ethyl-N-[(1S,3R)-3-(4H-1,2,4-triazol-4-yl)cyclohexyl]benzenesulfonamide]
0.5 | CCOC(=O)c1cn2cc(Cl)cc(-c3cc(C(F)(F)F)cc(S(=O)(=O)N[C@H]4CCC[C@@H](n5cnnc5)C4)c3)c2n1 [Compound 3Aaw, ethyl 6-chloro-8-[3-({[(1S,3R)-3-(4H-1,2,4-triazol-4-yl)cyclohexyl]amino}sulfonyl)-5-(trifluoromethyl)phenyl]imidazo[1,2-a]pyridine-2-carboxylate]
1.2 | O=S(=O)(N[C@H]1CCC[C@@H](n2cnnc2)C1)c1cc(-c2cc3ccccc3s2)cc(C(F)(F)F)c1 [Compound 3Aaf, 3-(1-benzothien-2-yl)-N-[(1S,3R)-3-(4H-1,2,4-triazol-4-yl)cyclohexyl]-5-(trifluoromethyl)benzenesulfonamide]
6.6 | Nc1cnc(-c2cc(C(F)(F)F)cc(S(=O)(=O)N[C@H]3CCC[C@@H](n4cnnc4)C3)c2)cn1 [Compound 3Aw, 3-(5-aminopyrazin-2-yl)-N-[(1S,3R)-3-(4H-1,2,4-triazol-4-yl)cyclohexyl]-5-(trifluoromethyl)benzenesulfonamide]
4 | O=S(=O)(N[C@H]1CCC[C@@H](n2cnnc2)C1)c1cc(-c2cccc3ccc(OCC(F)(F)F)nc23)cc(C(F)(F)F)c1 [Compound 3Aad, N-[(1S,3R)-3-(4H-1,2,4-triazol-4-yl)cyclohexyl]-3-[2-(2,2,2-trifluoroethoxy)quinolin-8-yl]-5-(trifluoromethyl)benzenesulfonamide]
30 | Cc1nncn1[C@@H]1CCC[C@H](NS(=O)(=O)c2ccc(-n3ccc(C4CC4)n3)cc2)C1 [Compound 2Ns, 4-(3-cyclopropyl-1H-pyrazol-1-yl)-N-[(1S,3R)-3-(3-methyl-4H-1,2,4-triazol-4-yl)cyclohexyl]benzenesulfonamide]
36 | Cc1nncn1[C@@H]1CCC[C@H](NS(=O)(=O)c2ccc(-c3cnc(Cl)c(F)c3)c(F)c2)C1 [Compound 2Fg, 4-(6-chloro-5-fluoropyridin-3-yl)-3-fluoro-N-[(1S,3R)-3-(3-methyl-4H-1,2,4-triazol-4-yl)cyclohexyl]benzenesulfonamide]
119 | CCc1cc(-c2ccc(C)nc2)ccc1S(=O)(=O)N[C@H]1CCC[C@@H](n2cnnc2)C1 [Compound 2Ai, 2-ethyl-4-(6-methylpyridin-3-yl)-N-[(1S,3R)-3-(4H-1,2,4-triazol-4-yl)cyclohexyl]benzenesulfonamide]

Compound | IC50 [nM]
O=S(=O)(N[C@H]1CCC[C@@H](c2cccnc2)C1)c1ccc(-c2noc(C3CC3)n2)cc1 (relative stereo) [Compound 8e, 4-(5-cyclopropyl-1,2,4-oxadiazol-3-yl)-N-(3-pyridin-cis-3-ylcyclohexyl)benzenesulfonamide] | 1.9
2-ethyl-N-[(1S,3R)-3-(4H-1,2,4-triazol-4-yl)cyclohexyl]biphenyl-4-sulfonamide [Compound 2Af] | 15
